Assay results reported in patent publication US20240210412A1, “SULFONYL-TRIAZOLE COMPOUNDS USEFUL AS LIGANDS AND INHIBITORS OF PROSTAGLANDIN REDUCTASE 2” (University of Virginia Patent Foundation, priority 2021, published 2024).

Legend:
Assay in all cases: SILAC LC-MS ABPP
Format in all cases: cell-based
Details in all cases: 25 μM 2 h, live DM93 cells
[1] = target: T1, Q12965 (Homo sapiens, UniProt Q12965)
T1 construct: performing SuTEx compound screening directly in cells; endogenous in cells; host or cells: DM93 cells (SILAC)
In short: (§1)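 Readout is SILAC heavy/light LC-MS/MS quantification of HHS-475-labelled tyrosine peptides, reflecting blockade of probe labelling by ligand. DM93 cells were pretreated with 25 μM SuTEx ligand (heavy) or DMSO (light) for 2 h at 37 °C, then probed with 100 μM HHS-475 for 2 h.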

[2] = target: T2, P15880 (Homo sapiens, UniProt P15880)
T2 construct: endogenous in cells; host or cells: DM93 cells (SILAC)
In short: as §1

[3] = target: T3, O15318 (Homo sapiens, UniProt O15318)
T3 construct: endogenous in cells; host or cells: DM93
T3 sequence (O15318 whole entry): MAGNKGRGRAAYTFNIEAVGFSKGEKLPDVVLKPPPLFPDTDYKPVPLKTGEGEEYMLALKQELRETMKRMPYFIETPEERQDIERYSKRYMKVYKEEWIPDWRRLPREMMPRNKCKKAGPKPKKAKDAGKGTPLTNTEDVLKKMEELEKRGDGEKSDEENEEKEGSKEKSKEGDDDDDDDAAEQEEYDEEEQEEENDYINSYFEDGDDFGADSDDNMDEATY
In short: as §1

[4] = target: T4, Q9BPW8 (Homo sapiens, UniProt Q9BPW8)
T4 construct: endogenous in cells; host or cells: DM93 cells (SILAC), treated live; soluble proteome analysed
T4 sequence (Q9BPW8 36-284): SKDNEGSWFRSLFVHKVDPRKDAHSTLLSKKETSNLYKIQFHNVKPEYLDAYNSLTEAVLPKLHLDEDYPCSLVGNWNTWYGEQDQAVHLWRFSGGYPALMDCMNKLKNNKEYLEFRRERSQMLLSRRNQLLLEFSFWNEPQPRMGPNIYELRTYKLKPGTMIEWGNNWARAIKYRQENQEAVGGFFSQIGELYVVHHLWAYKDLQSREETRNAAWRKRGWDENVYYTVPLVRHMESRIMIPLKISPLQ
In short: as §1

[5] = target: T5, Q00535 (Homo sapiens, UniProt Q00535)
T5 construct: performing SuTEx compound screening directly in cells; endogenous in cells; host or cells: DM93 cells (SILAC)
In short: as §1

[6] = target: T6, Q9H3P7 (Homo sapiens, UniProt Q9H3P7)
T6 construct: endogenous in cells; host or cells: DM93 cells (SILAC), treated live; soluble proteome analysed
T6 sequence (Q9H3P7 whole entry): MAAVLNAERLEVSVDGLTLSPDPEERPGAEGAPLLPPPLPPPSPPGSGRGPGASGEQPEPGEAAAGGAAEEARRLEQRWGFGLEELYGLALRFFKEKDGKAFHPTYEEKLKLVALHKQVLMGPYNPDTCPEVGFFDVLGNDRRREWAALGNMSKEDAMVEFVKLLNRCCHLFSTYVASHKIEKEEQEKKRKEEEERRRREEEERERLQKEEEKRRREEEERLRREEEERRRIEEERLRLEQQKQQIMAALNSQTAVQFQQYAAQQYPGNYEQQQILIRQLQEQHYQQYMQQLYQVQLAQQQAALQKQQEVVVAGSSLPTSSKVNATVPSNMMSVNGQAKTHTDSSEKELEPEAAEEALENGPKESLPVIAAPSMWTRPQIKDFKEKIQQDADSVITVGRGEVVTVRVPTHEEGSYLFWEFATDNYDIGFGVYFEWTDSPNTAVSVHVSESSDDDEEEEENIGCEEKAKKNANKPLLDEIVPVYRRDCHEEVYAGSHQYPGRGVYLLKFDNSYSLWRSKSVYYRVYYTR
In short: as §1

[7] = target: T7, O75521 (Homo sapiens, UniProt O75521)
T7 construct: endogenous in cells; host or cells: DM93 cells (SILAC)
In short: as §1

[8] = target: T8, Q9NVE7 (Homo sapiens, UniProt Q9NVE7)
T8 construct: endogenous in cells; host or cells: DM93 cells (SILAC)
In short: as §1

[9] = target: T9, Q92878 (Homo sapiens, UniProt Q92878)
T9 construct: endogenous in cells; host or cells: DM93 cells (SILAC), live-cell treatment
T9 sequence (Q92878 whole entry): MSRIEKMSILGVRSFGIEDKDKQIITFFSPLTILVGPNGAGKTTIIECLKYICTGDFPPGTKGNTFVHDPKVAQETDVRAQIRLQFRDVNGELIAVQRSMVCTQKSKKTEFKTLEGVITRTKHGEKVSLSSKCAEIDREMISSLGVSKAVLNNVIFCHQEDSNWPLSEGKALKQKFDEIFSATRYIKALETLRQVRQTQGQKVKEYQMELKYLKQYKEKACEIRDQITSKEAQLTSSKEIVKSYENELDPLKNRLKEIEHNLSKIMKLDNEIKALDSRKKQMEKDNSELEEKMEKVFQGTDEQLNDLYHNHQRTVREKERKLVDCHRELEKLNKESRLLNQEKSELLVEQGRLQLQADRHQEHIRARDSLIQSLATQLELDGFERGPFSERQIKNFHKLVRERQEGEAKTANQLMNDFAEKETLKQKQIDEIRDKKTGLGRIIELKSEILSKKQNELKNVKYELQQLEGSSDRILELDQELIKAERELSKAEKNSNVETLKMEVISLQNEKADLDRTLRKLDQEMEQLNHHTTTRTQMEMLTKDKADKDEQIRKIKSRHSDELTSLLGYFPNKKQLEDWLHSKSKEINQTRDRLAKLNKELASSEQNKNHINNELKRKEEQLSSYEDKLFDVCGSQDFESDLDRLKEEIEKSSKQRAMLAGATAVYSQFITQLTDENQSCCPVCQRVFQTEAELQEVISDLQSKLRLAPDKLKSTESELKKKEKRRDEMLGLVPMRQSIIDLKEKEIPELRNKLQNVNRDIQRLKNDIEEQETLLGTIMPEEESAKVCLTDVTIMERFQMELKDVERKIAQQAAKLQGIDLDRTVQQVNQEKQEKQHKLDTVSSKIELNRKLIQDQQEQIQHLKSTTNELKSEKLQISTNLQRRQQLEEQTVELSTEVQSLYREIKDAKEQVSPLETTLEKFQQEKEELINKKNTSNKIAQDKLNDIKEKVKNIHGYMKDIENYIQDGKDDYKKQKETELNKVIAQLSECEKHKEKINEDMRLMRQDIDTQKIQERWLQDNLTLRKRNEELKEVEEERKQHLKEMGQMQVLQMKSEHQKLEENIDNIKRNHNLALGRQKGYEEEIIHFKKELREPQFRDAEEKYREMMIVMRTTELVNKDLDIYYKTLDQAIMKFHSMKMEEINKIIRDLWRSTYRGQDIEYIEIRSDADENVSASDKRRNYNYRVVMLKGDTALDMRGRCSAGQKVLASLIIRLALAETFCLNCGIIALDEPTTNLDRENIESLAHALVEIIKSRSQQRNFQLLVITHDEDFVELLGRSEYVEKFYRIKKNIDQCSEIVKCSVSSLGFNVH
In short: as §1

[10] = target: T10, Q00341 (Homo sapiens, UniProt Q00341)
T10 construct: performing SuTEx compound screening directly in cells; endogenous in cells; host or cells: DM93 cells (SILAC)
In short: as §1

[11] = target: T11, Q9UI12 (Homo sapiens, UniProt Q9UI12)
T11 construct: endogenous in cells; host or cells: DM93 cells (SILAC)
In short: as §1

[12] = target: T12, P55084 (Homo sapiens, UniProt P55084)
T12 construct: endogenous in cells; host or cells: DM93 cells (SILAC)
T12 sequence (P55084 34-474): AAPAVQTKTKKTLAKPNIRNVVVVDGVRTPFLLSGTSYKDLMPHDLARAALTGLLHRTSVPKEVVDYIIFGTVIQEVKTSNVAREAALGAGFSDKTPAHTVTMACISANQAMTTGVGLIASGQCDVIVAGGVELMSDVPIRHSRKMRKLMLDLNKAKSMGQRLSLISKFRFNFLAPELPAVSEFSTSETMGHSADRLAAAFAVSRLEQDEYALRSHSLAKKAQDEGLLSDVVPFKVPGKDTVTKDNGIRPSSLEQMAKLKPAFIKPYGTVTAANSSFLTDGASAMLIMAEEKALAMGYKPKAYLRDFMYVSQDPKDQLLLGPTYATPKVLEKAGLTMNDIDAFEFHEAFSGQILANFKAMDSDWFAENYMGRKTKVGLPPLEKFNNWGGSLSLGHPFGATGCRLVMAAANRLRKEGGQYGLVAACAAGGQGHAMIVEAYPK
T12 sequence (P40939 37-763 partner): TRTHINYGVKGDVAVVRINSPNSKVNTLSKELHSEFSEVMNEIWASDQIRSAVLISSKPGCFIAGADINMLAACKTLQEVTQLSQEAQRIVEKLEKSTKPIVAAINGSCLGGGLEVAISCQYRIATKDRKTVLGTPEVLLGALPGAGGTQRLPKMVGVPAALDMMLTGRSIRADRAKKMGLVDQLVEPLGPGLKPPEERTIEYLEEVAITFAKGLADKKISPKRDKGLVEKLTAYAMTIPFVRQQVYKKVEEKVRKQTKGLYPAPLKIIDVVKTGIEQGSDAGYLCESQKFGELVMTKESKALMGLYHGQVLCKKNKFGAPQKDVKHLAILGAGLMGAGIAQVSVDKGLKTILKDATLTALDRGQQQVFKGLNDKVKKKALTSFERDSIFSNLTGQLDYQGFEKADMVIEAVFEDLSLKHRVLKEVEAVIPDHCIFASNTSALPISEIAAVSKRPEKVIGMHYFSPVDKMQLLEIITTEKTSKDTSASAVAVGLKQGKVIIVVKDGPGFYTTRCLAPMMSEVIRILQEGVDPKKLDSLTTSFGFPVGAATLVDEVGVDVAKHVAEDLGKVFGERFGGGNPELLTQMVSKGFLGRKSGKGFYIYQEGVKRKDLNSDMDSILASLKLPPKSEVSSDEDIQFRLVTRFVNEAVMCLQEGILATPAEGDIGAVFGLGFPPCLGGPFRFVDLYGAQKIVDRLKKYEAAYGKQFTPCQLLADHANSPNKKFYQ
In short: as §1

[13] = target: T13, P05455 (Homo sapiens, UniProt P05455)
T13 construct: endogenous in cells; host or cells: DM93 cells (SILAC)
In short: as §1

[14] = target: T14, P46013 (Homo sapiens, UniProt P46013)
T14 construct: endogenous in cells; host or cells: DM93 cells (SILAC)
In short: as §1

[15] = target: T15, P52597 (Homo sapiens, UniProt P52597)
T15 construct: endogenous in cells; host or cells: DM93 cells (SILAC)
T15 sequence (P52597 whole entry): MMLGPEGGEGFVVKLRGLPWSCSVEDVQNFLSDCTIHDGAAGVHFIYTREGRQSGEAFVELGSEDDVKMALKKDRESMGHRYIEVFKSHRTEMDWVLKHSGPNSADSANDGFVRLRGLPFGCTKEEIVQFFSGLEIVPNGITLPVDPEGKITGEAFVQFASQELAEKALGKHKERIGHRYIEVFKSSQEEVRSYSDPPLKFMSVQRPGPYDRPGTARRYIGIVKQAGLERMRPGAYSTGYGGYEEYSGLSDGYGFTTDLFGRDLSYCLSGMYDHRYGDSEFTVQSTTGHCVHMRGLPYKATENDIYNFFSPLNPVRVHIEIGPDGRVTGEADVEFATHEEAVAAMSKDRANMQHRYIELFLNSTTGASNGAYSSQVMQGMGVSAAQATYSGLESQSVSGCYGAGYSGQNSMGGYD
In short: as §1

[16] = target: T16, Q9HCH5 (Homo sapiens, UniProt Q9HCH5)
T16 construct: endogenous in cells; host or cells: DM93 cells (SILAC), treated live; soluble proteome analysed
In short: as §1

[17] = target: T17, Q92900 (Homo sapiens, UniProt Q92900)
T17 construct: endogenous in cells; host or cells: DM93 cells (SILAC), live-cell treatment
T17 sequence (Q92900 whole entry): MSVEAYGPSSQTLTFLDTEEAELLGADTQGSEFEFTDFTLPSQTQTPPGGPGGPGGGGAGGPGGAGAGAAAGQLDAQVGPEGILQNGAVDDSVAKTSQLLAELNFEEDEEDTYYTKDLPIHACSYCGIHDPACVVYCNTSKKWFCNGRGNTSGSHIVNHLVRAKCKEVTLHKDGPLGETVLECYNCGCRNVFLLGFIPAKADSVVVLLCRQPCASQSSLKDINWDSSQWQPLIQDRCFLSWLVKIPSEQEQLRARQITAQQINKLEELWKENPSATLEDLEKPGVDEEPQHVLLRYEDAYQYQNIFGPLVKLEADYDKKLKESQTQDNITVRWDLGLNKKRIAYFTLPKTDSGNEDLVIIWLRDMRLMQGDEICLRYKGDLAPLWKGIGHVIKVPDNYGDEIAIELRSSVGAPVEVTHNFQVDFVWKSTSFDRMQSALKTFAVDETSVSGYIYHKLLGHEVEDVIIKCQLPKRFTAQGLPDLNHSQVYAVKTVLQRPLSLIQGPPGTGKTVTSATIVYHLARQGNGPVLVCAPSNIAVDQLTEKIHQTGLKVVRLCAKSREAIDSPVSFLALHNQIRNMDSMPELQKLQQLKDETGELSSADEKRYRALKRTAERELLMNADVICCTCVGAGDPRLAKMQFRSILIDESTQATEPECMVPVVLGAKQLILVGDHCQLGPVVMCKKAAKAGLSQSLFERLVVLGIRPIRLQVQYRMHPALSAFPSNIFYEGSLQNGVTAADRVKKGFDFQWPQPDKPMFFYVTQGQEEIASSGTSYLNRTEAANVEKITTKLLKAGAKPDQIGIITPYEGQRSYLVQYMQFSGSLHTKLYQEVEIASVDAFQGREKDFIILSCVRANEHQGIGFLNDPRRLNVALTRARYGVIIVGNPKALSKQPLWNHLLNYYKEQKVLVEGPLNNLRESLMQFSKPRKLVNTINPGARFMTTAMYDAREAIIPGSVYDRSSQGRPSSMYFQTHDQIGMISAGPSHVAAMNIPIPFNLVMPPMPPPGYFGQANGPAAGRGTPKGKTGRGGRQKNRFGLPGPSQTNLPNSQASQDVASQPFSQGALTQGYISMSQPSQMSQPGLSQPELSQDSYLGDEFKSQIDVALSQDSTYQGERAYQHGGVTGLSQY
In short: as §1

[18] = target: T18, P63241 (Homo sapiens, UniProt P63241)
T18 construct: performing SuTEx compound screening directly in cells; endogenous in cells; host or cells: DM93 cells (SILAC)
In short: as §1

[19] = target: T19, Q96C86 (Homo sapiens, UniProt Q96C86)
T19 construct: endogenous in cells; host or cells: DM93 cells (SILAC), treated live; soluble proteome analysed
In short: as §1

## O=C(NC1CCCCC1)c1ccc(S(=O)(=O)n2cncn2)cc1 [HHS-0301, 4-((1H-1,2,4-triazol-1-yl)sulfonyl)-N-cyclohexylbenzamide]
[1]
  liganded tyrosine site 9: HHS0301.Y (tyrosine sites that showed >80% reductions (SR >5) in probe labeling in cells treated with compounds (liganded sites))
[2]
  liganded tyrosine site 250: HHS0301.Y (tyrosine sites that showed >80% reductions (SR >5) in probe labeling in cells treated with compounds (liganded sites))
[3]
  liganded tyrosine site 43: HHS0301.Y|HHS0401.Y (tyrosine sites that showed >80% reductions (SR >5) in probe labeling in cells treated with compounds (liganded sites))
  liganded tyrosine site 56: HHS0301.Y (tyrosine sites that showed >80% reductions (SR >5) in probe labeling in cells treated with compounds (liganded sites))

## O=C(c1ccc(S(=O)(=O)n2cncn2)cc1)N1CCC(c2ccccc2)CC1 [HHS-0701, (4-((1H-1,2,4-triazol-1-yl)sulfonyl)phenyl)(4-phenylpiperidin-1-yl)methanone]
[4]
  liganded tyrosine site 83: HHS0701.Y (tyrosine sites that showed >80% reductions (SR >5) in probe labeling in cells treated with compounds (liganded sites))

## O=C(NCC1CC1)c1ccc(S(=O)(=O)n2cncn2)cc1 [HHS-0201, 4-((1H-1,2,4-triazol-1-yl)sulfonyl)-N-(cyclopropylmethyl)benzamide]
[5]
  liganded tyrosine site 242: HHS0201.Y (tyrosine sites that showed >80% reductions (SR >5) in probe labeling in cells treated with compounds (liganded sites))
[6]
  liganded tyrosine site 293: HHS0201.Y|HHS0301.Y (tyrosine sites that showed >80% reductions (SR >5) in probe labeling in cells treated with compounds (liganded sites))
[7]
  liganded tyrosine site 285: HHS0201.Y|HHS0301.Y|HHS0401.Y (tyrosine sites that showed >80% reductions (SR >5) in probe labeling in cells treated with compounds (liganded sites))
[8]
  liganded tyrosine site 338: HHS0201.Y|HHS0401.Y (tyrosine sites that showed >80% reductions (SR >5) in probe labeling in cells treated with compounds (liganded sites))
[9]
  liganded tyrosine site 244: HHS0201.Y|HHS0301.Y (tyrosine sites that showed >80% reductions (SR >5) in probe labeling in cells treated with compounds (liganded sites))
[10]
  liganded tyrosine site 582: HHS0201.Y (tyrosine sites that showed >80% reductions (SR >5) in probe labeling in cells treated with compounds (liganded sites))
[11]
  liganded tyrosine site 163: HHS0201.Y|HHS0301.Y (tyrosine sites that showed >80% reductions (SR >5) in probe labeling in cells treated with compounds (liganded sites))

## O=C(NCc1ccccc1)c1ccc(S(=O)(=O)n2cncn2)cc1 [HHS-0401, 4-((1H-1,2,4-triazol-1-yl)sulfonyl)-N-benzylbenzamide]
[12]
  liganded tyrosine site 402: HHS0401.Y (tyrosine sites that showed >80% reductions (SR >5) in probe labeling in cells treated with compounds (liganded sites))
[13]
  liganded tyrosine site 188: HHS0401.Y (tyrosine sites that showed >80% reductions (SR >5) in probe labeling in cells treated with compounds (liganded sites))
[14]
  liganded tyrosine site 340: HHS0401.Y|HHS0701.Y (tyrosine sites that showed >80% reductions (SR >5) in probe labeling in cells treated with compounds (liganded sites))

## O=C(NC1CC1)c1ccc(S(=O)(=O)n2cncn2)cc1 [HHS-0101, 4-((1H-1,2,4-triazol-1-yl)sulfonyl)-N-cyclopropylbenzamide]
[15]
  liganded tyrosine site 210: HHS0101.Y|HHS0201.Y|HHS0701.Y (tyrosine sites that showed >80% reductions (SR >5) in probe labeling in cells treated with compounds (liganded sites))
  liganded tyrosine site 298: HHS0101.Y|HHS0701.Y (tyrosine sites that showed >80% reductions (SR >5) in probe labeling in cells treated with compounds (liganded sites))
[16]
  liganded tyrosine site 289: HHS0101.Y|HHS0201.Y|HHS0301.Y|HHS0401.Y|HHS0701.Y (tyrosine sites that showed >80% reductions (SR >5) in probe labeling in cells treated with compounds (liganded sites))
[17]
  liganded tyrosine site 518: HHS0101.Y|HHS0201.Y|HHS0401.Y|HHS0701.Y (tyrosine sites that showed >80% reductions (SR >5) in probe labeling in cells treated with compounds (liganded sites))
  liganded tyrosine site 946: HHS0101.Y (tyrosine sites that showed >80% reductions (SR >5) in probe labeling in cells treated with compounds (liganded sites))
[18]
  liganded tyrosine site 127: HHS0101.Y|HHS0201.Y|HHS0701.Y (tyrosine sites that showed >80% reductions (SR >5) in probe labeling in cells treated with compounds (liganded sites))
[19]
  liganded tyrosine site 116: HHS0101.Y|HHS0401.Y (tyrosine sites that showed >80% reductions (SR >5) in probe labeling in cells treated with compounds (liganded sites))
